Laboratory results: PubChem BioAssay AID2060892 (Molecular Pharmacology Branch, DTP, NCI, 2025)

Tested on: HOP-62 complex spheroids with HUVEC/MSC, viability
Test: Anticancer human tumor HOP-62 cell line growth inhibition [RAS];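 also: spheroids exposed to agents for seven days before readout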;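 as to viability, T/C: 100% = DMSO vehicle control viability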
Conditions: for IC50: curve of first compound; for viability, T/C: stronger effect = lower value
In short: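 Multi-cell-type spheroids: tumor cells plus HUVEC endothelial cells and mesenchymal stem cells. RAS-pathway inhibitors were combined with targeted agents, each dosed in half-log steps down from clinical Cmax, or from 10 microM when Cmax was unknown.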

[1] = second compound 0.00316 µM, first compound 0.000949 µM
[2] = second compound 0.00316 µM, first compound 0.003 µM
[3] = second compound 0.00316 µM, first compound 0.00949 µM
[4] = second compound 0.00316 µM, first compound 0.03 µM
[5] = second compound 0.00316 µM, first compound 0.0949 µM
[6] = second compound 0.00316 µM, first compound 0.3 µM
[7] = second compound 0.01 µM, first compound 0.000949 µM
[8] = second compound 0.01 µM, first compound 0.003 µM
[9] = second compound 0.01 µM, first compound 0.00949 µM
[10] = second compound 0.01 µM, first compound 0.03 µM
[11] = second compound 0.01 µM, first compound 0.0949 µM
[12] = second compound 0.01 µM, first compound 0.3 µM
[13] = second compound 0.0316 µM, first compound 0.000949 µM
[14] = second compound 0.0316 µM, first compound 0.003 µM
[15] = second compound 0.0316 µM, first compound 0.00949 µM
[16] = second compound 0.0316 µM, first compound 0.03 µM
[17] = second compound 0.0316 µM, first compound 0.0949 µM
[18] = second compound 0.0316 µM, first compound 0.3 µM
[19] = second compound 0.1 µM, first compound 0.000949 µM
[20] = second compound 0.1 µM, first compound 0.003 µM
[21] = second compound 0.1 µM, first compound 0.00949 µM
[22] = second compound 0.1 µM, first compound 0.03 µM
[23] = second compound 0.1 µM, first compound 0.0949 µM
[24] = second compound 0.1 µM, first compound 0.3 µM
[25] = second compound 0.316 µM, first compound 0.000949 µM
[26] = second compound 0.316 µM, first compound 0.003 µM
[27] = second compound 0.316 µM, first compound 0.00949 µM
[28] = second compound 0.316 µM, first compound 0.03 µM
[29] = second compound 0.316 µM, first compound 0.0949 µM
[30] = second compound 0.316 µM, first compound 0.3 µM
[31] = second compound 1 µM, first compound 0.000949 µM
[32] = second compound 1 µM, first compound 0.003 µM
[33] = second compound 1 µM, first compound 0.00949 µM
[34] = second compound 1 µM, first compound 0.03 µM
[35] = second compound 1 µM, first compound 0.0949 µM
[36] = second compound 1 µM, first compound 0.3 µM
[37] = second compound 0.000949 µM, first compound 0.00316 µM
[38] = second compound 0.000949 µM, first compound 0.01 µM
[39] = second compound 0.000949 µM, first compound 0.0316 µM
[40] = second compound 0.000949 µM, first compound 0.1 µM
[41] = second compound 0.000949 µM, first compound 0.316 µM
[42] = second compound 0.000949 µM, first compound 1 µM
[43] = second compound 0.003 µM, first compound 0.00316 µM
[44] = second compound 0.003 µM, first compound 0.01 µM
[45] = second compound 0.003 µM, first compound 0.0316 µM
[46] = second compound 0.003 µM, first compound 0.1 µM
[47] = second compound 0.003 µM, first compound 0.316 µM
[48] = second compound 0.003 µM, first compound 1 µM
[49] = second compound 0.00949 µM, first compound 0.00316 µM
[50] = second compound 0.00949 µM, first compound 0.01 µM
[51] = second compound 0.00949 µM, first compound 0.0316 µM
[52] = second compound 0.00949 µM, first compound 0.1 µM
[53] = second compound 0.00949 µM, first compound 0.316 µM
[54] = second compound 0.00949 µM, first compound 1 µM
[55] = second compound 0.03 µM, first compound 0.00316 µM
[56] = second compound 0.03 µM, first compound 0.01 µM
[57] = second compound 0.03 µM, first compound 0.0316 µM
[58] = second compound 0.03 µM, first compound 0.1 µM
[59] = second compound 0.03 µM, first compound 0.316 µM
[60] = second compound 0.03 µM, first compound 1 µM
[61] = second compound 0.0949 µM, first compound 0.00316 µM
[62] = second compound 0.0949 µM, first compound 0.01 µM
[63] = second compound 0.0949 µM, first compound 0.0316 µM
[64] = second compound 0.0949 µM, first compound 0.1 µM
[65] = second compound 0.0949 µM, first compound 0.316 µM
[66] = second compound 0.0949 µM, first compound 1 µM
[67] = second compound 0.3 µM, first compound 0.00316 µM
[68] = second compound 0.3 µM, first compound 0.01 µM
[69] = second compound 0.3 µM, first compound 0.0316 µM
[70] = second compound 0.3 µM, first compound 0.1 µM
[71] = second compound 0.3 µM, first compound 0.316 µM
[72] = second compound 0.3 µM, first compound 1 µM

CC1(C)CCC(Nc2ncc(C(F)(F)F)c(-c3c[nH]c4c(P(C)(C)=O)c(C#N)ccc34)n2)CN1 (stereo not drawn) + C=CC(=O)N1CCN(c2nc(OCC3CCCN3C)nc3c(F)c(-c4nc(N)cc(C)c4C(F)(F)F)c(Cl)cc23)C(C)C1
IC50 (second compound 0.00316 µM): < 0.949 nM | IC50 (second compound 0.01 µM): 0.977 nM | IC50 (second compound 0.0316 µM): < 0.949 nM | IC50 (second compound 0.1 µM): < 0.949 nM | IC50 (second compound 0.316 µM): < 0.949 nM | IC50 (second compound 1 µM): 0.959 nM | viability, T/C [1]: 49.6% | viability, T/C [2]: 25% | viability, T/C [3]: 19.8% | viability, T/C [4]: 15.8% | viability, T/C [5]: 20.4% | viability, T/C [6]: 21.5% | viability, T/C [7]: 50.7% | viability, T/C [8]: 24% | viability, T/C [9]: 20.3% | viability, T/C [10]: 16.4% | viability, T/C [11]: 20% | viability, T/C [12]: 19.8% | viability, T/C [13]: 45.2% | viability, T/C [14]: 23.8% | viability, T/C [15]: 19.6% | viability, T/C [16]: 15.4% | viability, T/C [17]: 20.8% | viability, T/C [18]: 22.5% | viability, T/C [19]: 45.1% | viability, T/C [20]: 22.6% | viability, T/C [21]: 21.2% | viability, T/C [22]: 17.5% | viability, T/C [23]: 16% | viability, T/C [24]: 20% | viability, T/C [25]: 48.8% | viability, T/C [26]: 25.8% | viability, T/C [27]: 19.7% | viability, T/C [28]: 16.8% | viability, T/C [29]: 21.2% | viability, T/C [30]: 22.7% | viability, T/C [31]: 50.3% | viability, T/C [32]: 20.7% | viability, T/C [33]: 18.4% | viability, T/C [34]: 19.6% | viability, T/C [35]: 17.6% | viability, T/C [36]: 19.1%

CCc1c2c(nc3ccc(O)cc13)-c1cc3c(c(=O)n1C2)COC(=O)[C@]3(O)CC + C=CC(=O)N1CCN(c2nc(OCC3CCCN3C)nc3c(F)c(-c4nc(N)cc(C)c4C(F)(F)F)c(Cl)cc23)C(C)C1
IC50 (second compound 0.00316 µM): < 0.949 nM | IC50 (second compound 0.01 µM): < 0.949 nM | IC50 (second compound 0.0316 µM): < 0.949 nM | IC50 (second compound 0.1 µM): < 0.949 nM | IC50 (second compound 0.316 µM): < 0.949 nM | IC50 (second compound 1 µM): < 0.949 nM | viability, T/C [1]: 46.5% | viability, T/C [2]: 11.8% | viability, T/C [3]: 6.88% | viability, T/C [4]: 3.96% | viability, T/C [5]: 2.91% | viability, T/C [6]: 4.33% | viability, T/C [7]: 47.3% | viability, T/C [8]: 11.6% | viability, T/C [9]: 6.73% | viability, T/C [10]: 4.31% | viability, T/C [11]: 3.65% | viability, T/C [12]: 2.46% | viability, T/C [13]: 42.5% | viability, T/C [14]: 9.52% | viability, T/C [15]: 5.4% | viability, T/C [16]: 3.77% | viability, T/C [17]: 2.66% | viability, T/C [18]: 2.57% | viability, T/C [19]: 47.7% | viability, T/C [20]: 10.1% | viability, T/C [21]: 6.42% | viability, T/C [22]: 3.2% | viability, T/C [23]: 3.67% | viability, T/C [24]: 2.48% | viability, T/C [25]: 40.5% | viability, T/C [26]: 10.3% | viability, T/C [27]: 8.01% | viability, T/C [28]: 5.51% | viability, T/C [29]: 4.05% | viability, T/C [30]: 2.72% | viability, T/C [31]: 43.2% | viability, T/C [32]: 12.4% | viability, T/C [33]: 6.37% | viability, T/C [34]: 4.48% | viability, T/C [35]: 2.92% | viability, T/C [36]: 2.71%

C=CC(=O)Nc1cc(Nc2nccc(-c3cn(C)c4ccccc34)n2)c(OC)cc1N(C)CCN(C)C + CCn1c(-c2cc(N3CCN(C)CC3)cnc2C(C)OC)c2c3cc(ccc31)-c1csc(n1)CC(NC(=O)C1CC1C)C(=O)N1CCCC(N1)C(=O)OCC(C)(C)C2
IC50 (second compound 0.000949 µM): > 1000 nM | IC50 (second compound 0.003 µM): 688 nM | IC50 (second compound 0.00949 µM): 278 nM | IC50 (second compound 0.03 µM): 6.38 nM | IC50 (second compound 0.0949 µM): < 3.16 nM | IC50 (second compound 0.3 µM): < 3.16 nM | viability, T/C [37]: 119% | viability, T/C [38]: 114% | viability, T/C [39]: 85.8% | viability, T/C [40]: 120% | viability, T/C [41]: 106% | viability, T/C [42]: 66.4% | viability, T/C [43]: 97.4% | viability, T/C [44]: 88.6% | viability, T/C [45]: 74.4% | viability, T/C [46]: 89.5% | viability, T/C [47]: 75.9% | viability, T/C [48]: 37.4% | viability, T/C [49]: 76.6% | viability, T/C [50]: 62.5% | viability, T/C [51]: 59.7% | viability, T/C [52]: 66.5% | viability, T/C [53]: 47.3% | viability, T/C [54]: 33.2% | viability, T/C [55]: 52% | viability, T/C [56]: 49.2% | viability, T/C [57]: 42.7% | viability, T/C [58]: 43.3% | viability, T/C [59]: 26.6% | viability, T/C [60]: 30.1% | viability, T/C [61]: 40.2% | viability, T/C [62]: 44.1% | viability, T/C [63]: 33.8% | viability, T/C [64]: 32.1% | viability, T/C [65]: 26.4% | viability, T/C [66]: 24% | viability, T/C [67]: 42.1% | viability, T/C [68]: 35.6% | viability, T/C [69]: 37.4% | viability, T/C [70]: 33.7% | viability, T/C [71]: 22.9% | viability, T/C [72]: 22.7%

O=C(c1ccc(F)c(F)c1Nc1ccc(I)cc1F)N1CC(O)([C@@H]2CCCCN2)C1 + CCn1c(-c2cc(N3CCN(C)CC3)cnc2C(C)OC)c2c3cc(ccc31)-c1csc(n1)CC(NC(=O)C1CC1C)C(=O)N1CCCC(N1)C(=O)OCC(C)(C)C2
IC50 (second compound 0.000949 µM): 319 nM | IC50 (second compound 0.003 µM): 113 nM | IC50 (second compound 0.00949 µM): 56.7 nM | IC50 (second compound 0.03 µM): < 3.16 nM | IC50 (second compound 0.0949 µM): < 3.16 nM | IC50 (second compound 0.3 µM): < 3.16 nM | viability, T/C [37]: 119% | viability, T/C [38]: 113% | viability, T/C [39]: 78.7% | viability, T/C [40]: 75.9% | viability, T/C [41]: 51.2% | viability, T/C [42]: 27% | viability, T/C [43]: 86.3% | viability, T/C [44]: 73.3% | viability, T/C [45]: 56.9% | viability, T/C [46]: 56.5% | viability, T/C [47]: 39.3% | viability, T/C [48]: 37.3% | viability, T/C [49]: 65.5% | viability, T/C [50]: 52% | viability, T/C [51]: 67.8% | viability, T/C [52]: 38.5% | viability, T/C [53]: 28.5% | viability, T/C [54]: 30.9% | viability, T/C [55]: 49.9% | viability, T/C [56]: 45.9% | viability, T/C [57]: 33.1% | viability, T/C [58]: 32.2% | viability, T/C [59]: 29.2% | viability, T/C [60]: 37.3% | viability, T/C [61]: 36.7% | viability, T/C [62]: 35.3% | viability, T/C [63]: 32.9% | viability, T/C [64]: 41.7% | viability, T/C [65]: 32.8% | viability, T/C [66]: 37.5% | viability, T/C [67]: 37% | viability, T/C [68]: 39.1% | viability, T/C [69]: 37% | viability, T/C [70]: 38.7% | viability, T/C [71]: 32.9% | viability, T/C [72]: 38.3%
